Test results taken from patent publication US9226517B2, “Use of iminocyclitols as inhibitors of bacterial adherence to epithelial cells” (Taihua Shouyue (Hong Kong) International Co Limited, priority 2010, dated 2016).
“And” between values parts separate entries of the source, which are not always exact repeats. Equal entries are not always repeated.

How the values were obtained:
[1] = system: S. mutans; settings: Islam et al. 2008; compound isolated from M. alba; cited from earlier work
[2] = system: Bifidobacterium sp.; assay: Bacterial agglutination assay; type: cell-based; settings: Example 2; 90 min room temperature
Procedure: (§1) Bacteria used in the assay were Escherichia coli, Salmonella tphimurium, Streptococcus mutans, Lactobacillus casei and Bifidobacterium sp., from over night cultures. The bacteria were inoculated in the 100 ml flask with Luria medium. The bacteria were grown for 24 h at 37° C. After incubation, Agar Luria medium plates were inoculated. After 24 h suspensions of each strain were prepared in PBS medium (10^8 CFU/ml). Serial dilutions of the product to be tested, D-fagomine tartrate (10 ppm, 20 ppm, 2000 ppm) were made. The dilutions were mixed with bacterial suspensions in a 1:1 ratio. After 90 min. at room temperature the suspensions were observed under optical microscope. They were compared with the control culture without any product added. The Escherichia coli and Salmonella tphimurium were compared with a positive control culture (mannose 0.05M).

[3] = system: Lactobacillus casei; assay: Bacterial agglutination assay; type: cell-based; settings: Example 2; 90 min room temperature
Procedure: as §1

[4] = system: Escherichia coli; assay: Bacterial agglutination assay; type: cell-based; settings: for agglutination relative to the corresponding positive control: positive control mannose 0.05M
Procedure: (§2) Bacteria used in the assay were Escherichia coli, Salmonella tphimurium and Streptococcus mutans, from over night cultures. The bacteria were inoculated in the 100 ml flask with Luria medium. The bacteria were grown for 24 h at 37° C. After incubation, Agar Luria medium plates were inoculated. After 24 h suspensions of each strain were prepared in PBS medium (10^8 CFU/ml). Serial dilutions of the products to be tested, D-fagomine and D-fagomine tartrate (20 ppm, 200 ppm, 2000 ppm) were made. The dilutions were mixed with bacterial suspensions in a 1:1 ratio. After 90 min. at room temperature the suspensions were observed under optical microscope. They were compared with the control culture without any product added.
as §1

[5] = system: Salmonella tphimurium; assay: Bacterial agglutination assay; type: cell-based; settings: for agglutination relative to the corresponding positive control: positive control mannose 0.05M
Procedure: as §2, §1

[6] = system: Streptococcus mutans; assay: Bacterial agglutination assay; type: cell-based
Procedure: as §2, §1

[7] = system: Streptococcus mutans; assay: Glass surface adherence assay; type: cell-based; settings: for G/MG (Glass/Mannose glass): vs mannose 0.05 M
Procedure: Glass surface adherence assay was performed. The bacterium used in the assay was Streptococcus mutans from over night cultures (1 10^10 UCF/ml). The bacterium was grown for 18 h at 37° C. in PBS medium. The bacteria from the overnight culture (0.25 ml) were grown for 18 h at […] in a glass dish with the specific medium (0.5 ml). After the 18 h, 0.25 ml of D-fagomine (10 ppm, 20 ppm and 40 ppm) was added. In the control plate was added only PBS. After 90 min. the cells were transfered (0.5 ml) to a falcon tube, then were washed two times with PBS (0.5 ml each time). The wash of each bacteria was collected in a falcon tube and was kept at 4° C. The cells (100 μl) were seeded in the plates in TSA medium. The cells adhered were scrapped. In each well, it was added 0.5 ml of sterile PBS. The plaques with 100 μl were inoculated. The plaques were counted.

[8] = system: Bifidobacterium; assay: Adhesion to mucus; type: cell-based
Procedure: (§3) • Adhesion to mucus. Protocol Day 1
(§4) The bacteria was inoculated in the tube with 3 ml Luria medium. The bacteria were grown for 24 h at 37° C. The tube was incubated overnight (1 10^7-1 10^8 UCF/ml).
(§5) The mucus (1 ml) is defrosted at room temperature. 100 ml of PBS medium was prepared. The defrosted mucus (1 ml) was centrifuged at 8000 rpm for 10 minutes. The mucus (1 ml) was transferred to an aliquot with sterile PBS (99 ml). Each well is inoculated with 2.5 ml from the mixture and the plate is kept in the fridge (4° C.) overnight.
(§6) The plate was taken out from the fridge an the wash was made. 2 ml was extracted from each well. PBS (1 ml) was added, then was extracted, at the end there was 0.5 ml in the well.
(§7) The tubes that were grown overnight, were diluted (1 10^7 UCF/ml).
(§8) The final volume in each well was: PBS 0.5 ml plus bacterial suspension 0.5 ml plus D-fagomine 0.5 ml (or PBS in control case). It was prepared 2 plates (duplicated strains). Product concentration in the wells (10 ppm, 20 ppm, 40 pppm). Mannose concentration 0.05M (control well). The wells were inoculated and the plates were incubated at 37° C. for 90 minutes. After the 90 minutes, the supernatant of each well (10 μl) were observed under optical microscope. It was added 1 ml of each well in eppendorfs. The eppendords were kept on the fridge. Two wash were made with PBS. The wells washes of the same strain were recoleted in a falcon tube and they were kept at 4° C. PBS (1 ml) was added in each well and the plates were inoculated with 100 μl of each tubes at the adecuated dilutions.
(§9) The plates were recounted

[9] = system: Lactobacillus acidophilus; assay: Adhesion to mucus; type: cell-based
Procedure: as §3, §4, §5, §6, §7, §8, §9

[10] = system: Escherichia coli; assay: Adhesion to mucus (mucosal epitelial cells); type: cell-based; settings: for Bacteria in supernatant: duplicates 1 and 2
Procedure: (§10) • Mucus: mucosal epitelial cells • Adhesion to mucus. Protocol Day 1
(§11) The bacteria was inoculated in the tube, with 3 ml Luria medium. The bacteria were grown for 24 h at 37° C. The tube was incubated overnight (1 10^8-1 10^9 UCF/ml).
(§12) The mucus (1 ml) is defrosted at room temperature. PBS medium (100 ml) was prepared. The defrosted mucus was centrifuged at 8000 rpm for 10 minutes. The mucus (1 ml) was transferred to an aliquot with sterile PBS (99 ml) (1:100). Each well is inoculated with 2.5 ml from the mixture and the plate is kept in the fridge (4° C.) overnight.
(§13) The plate was taken out from the fridge. 2 ml was extracted from each well. PBS (1 ml) was added, then was extracted, at the end there was 0.5 ml in the well.
(§14) The tubes that were grown overnight were diluted (1 10^7 UCF/ml).
(§15) The final volume in each well was: PBS 0.5 ml plus bacterial suspension 0.5 ml plus D-fagomine 0.5 ml (or PBS in control case).
(§16) Two plates were prepared (duplicated strains). Product concentration in the wells (10 ppm, 20 ppm, 40 pppm). Mannose concentration 0.05M (control well).
(§17) The wells were inoculated and the plates were incubated at 37° C. for 90 minutes.
(§18) After the 90 minutes, the supernatant of each well (10 μl) were observed under optical microscope.
(§19) It was added 1 ml of each well in eppendorfs. The eppendords were kept on the fridge. Two wash were made with PBS. The wells washed of the same strain were recoleted in a falcon tube and they were kept at 4° C. PBS (1 ml) was added in each well and the plates were inoculated with 100 μl of each tubes at the adecuated dilutions.
as §9

[11] = system: Salmonella; assay: Adhesion to mucus (mucosal epitelial cells); type: cell-based
Procedure: as §10, §11, §12, §13, §14, §15, §16, §17, §18, §19, §9

[12] = Castillo et al., Organic Letter 2006; cited from earlier work
[13] = Example 1, 20 ppm, 200 ppm and 2000 ppm, 90 min room temperature, vs control culture
[14] = Example 2, 20 ppm and 200 ppm, 90 min room temperature
[15] = independently of the D-fagomine concentration (10, 20, 40 ppm)
[16] = D-fagomine 40 ppm, duplicates 1 and 2

Structure (SMILES): OC[C@H]1NC[C@H](O)[C@@H](O)[C@@H]1O [1-deoxynojirimycin]
- anti-microbial activity against S. mutans [1]: anti-microbial activity

Structure (SMILES): O=C(O)C(O)C(O)C(=O)O.OC[C@H]1NCC[C@@H](O)[C@@H]1O [D-fagomine tartrate]
- agglutination of the cells (optical microscope) [2]: not agglutinated
- agglutination of the cells (optical microscope) [3]: not agglutinated
- agglutination relative to the corresponding positive control ([4]; 20 ppm): about 60%
- agglutination relative to the corresponding positive control ([4]; 200 ppm): about 70%
- agglutination of the cells (optical microscope) [4, 13]: agglutinated
- agglutination of the cells (optical microscope) ([4]; Example 2, 10 ppm): not at 10 ppm
- agglutination of the cells (optical microscope) [4, 14]: agglutinated
- agglutination relative to the corresponding positive control ([5]; 20 ppm): about 60%
- agglutination relative to the corresponding positive control ([5]; 200 ppm): about 70%
- agglutination of the cells (optical microscope) [5, 13]: agglutinated
- agglutination of the cells (optical microscope) ([5]; Example 2, 10 ppm): not at 10 ppm
- agglutination of the cells (optical microscope) [5, 14]: agglutinated
- agglutination of the cells (optical microscope) [6, 13]: agglutinated
- agglutination of the cells (optical microscope) ([6]; Example 2, 10 ppm): not at 10 ppm
- agglutination of the cells (optical microscope) [6, 14]: agglutinated

Structure (SMILES): OC[C@H]1NCC[C@@H](O)[C@@H]1O [D-fagomine, (2R, 3R, 4R)-2-hydroxymethylpiperidine-3,4-diol]
- antiadherence activity in respect of the control ([7]; 10 ppm, 20 ppm and 40 ppm): has antiadherence activity
- PG/CG (Product glass/Control glass without product) ([7]; D-fagomine 10 ppm): 1.60
- G/MG (Glass/Mannose glass) ([7]; D-fagomine 10 ppm): 1.60
- G/MG (Glass/Mannose glass) ([7]; D-fagomine 20 ppm): 1.35
- Product M/Control M ([8]; D-fagomine 20 ppm): 1.14
- Product M/Control M ([8]; D-fagomine 40 ppm): 3.50
- M/Manose M ([9]; D-fagomine 10 ppm): 1.31
- Product M/Control M ([9]; D-fagomine 10 ppm): 5.58
- M/Manose M ([9]; D-fagomine 20 ppm): 1.31
- Product M/Control M ([9]; D-fagomine 20 ppm): 5.58
- Product M/Control M ([9]; D-fagomine 40 ppm): 3.94
- Bacteria in supernatant ([10]; D-fagomine 10 ppm): 94.5% and 95.1%
- Bacteria in supernatant ([10]; D-fagomine 20 ppm): 96.3% and 99.0%
- Bacteria in supernatant ([10]; D-fagomine 40 ppm): 99.2% and 98.6%
- agglutination of microorganisms with the mucus [10, 15]: not agglutinated with the mucus
- Bacteria in supernatant ([11]; D-fagomine 10 ppm, duplicates 1 and 2): 78.4% and 91.8%
- Bacteria in supernatant ([11]; D-fagomine 20 ppm, duplicates 1 and 2): 98.2% and 95.5%
- Bacteria in supernatant [11, 16]: 98.2% and 84.1%
- Supernatant/mucus [11, 16]: 5.27 UCF/ml
- agglutination of microorganisms with the mucus [11, 15]: not agglutinated with the mucus
- agglutination of the cells (optical microscope) [4, 13]: agglutinated
- agglutination of the cells (optical microscope) [5, 13]: agglutinated
- agglutination of the cells (optical microscope) [6, 13]: agglutinated
- antimicrobial activity [12]: do not show antimicrobial activity
